Reference: PubChem BioAssay (NCI)
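Cultured in 96-well plates, cells were exposed to test compound for 48 hours across five concentrations. GI50: concentration for 50% inhibition of growth. The concentration for full growth arrest is given as TGI.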

Assays:
Assay in all cases: inhibition of tumour cell growth, NCI panel, 48 h
[1] = tested on: NCI-H23 lung
[2] = tested on: SK-MEL-2 melanoma
[3] = tested on: M14 melanoma
[4] = tested on: PC-3 prostate
[5] = tested on: SNB-19 CNS
[6] = tested on: IGROV1 ovarian
[7] = tested on: HCT-116 colon
[8] = tested on: MDA-MB-435
[9] = tested on: SF-268 CNS
[10] = tested on: MDA-N

SMILES: Cn1c(=S)[nH]c(N)c(Cc2ccccc2)c1=O
- TGI [1]: > 100 µM
- TGI [2]: > 100 µM
- TGI [3]: > 100 µM
- TGI [4]: > 100 µM
- TGI [5]: > 100 µM
- TGI [6]: 68.4 µM
- TGI [7]: > 100 µM
- TGI [8]: > 100 µM
- TGI [9]: > 100 µM
- TGI [10]: > 100 µM

SMILES: CCOC(=O)c1cc([N+](=O)[O-])c(Sc2ncnc3nc[nH]c23)c([N+](=O)[O-])c1
- TGI [1]: 28.7 µM
- TGI [2]: 24.6 µM
- TGI [3]: 15 µM
- TGI [4]: 27.9 µM
- TGI [5]: 32.4 µM
- TGI [6]: 13.7 µM
- TGI [7]: 3.94 µM
- TGI [8]: 14.7 µM
- TGI [9]: 17.8 µM
- TGI [10]: 15.1 µM

SMILES: O=c1oc2ccccc2n1P(=O)(Oc1ccc(Cl)cc1)n1c(=O)oc2ccccc21
- TGI [1]: > 100 µM
- TGI [2]: > 100 µM
- TGI [5]: > 100 µM
- TGI [6]: > 100 µM
- TGI [7]: > 100 µM
- TGI [9]: > 100 µM

SMILES: COc1ccc(CNc2nc3cc(C(F)(F)F)ccc3nc2C(=O)O)cc1
- TGI [1]: 76.3 µM
- TGI [2]: 62.2 µM
- TGI [3]: 58.1 µM
- TGI [4]: > 100 µM
- TGI [5]: > 100 µM
- TGI [6]: > 100 µM
- TGI [7]: 41 µM
- TGI [8]: 50.6 µM
- TGI [10]: 74.6 µM

SMILES: C[C@@H](c1ccccc1)N1CO[C@@]2(C#Cc3ccc4c(c3)OCO4)CCC[C@@H]12
- TGI [1]: 28.8 µM
- TGI [2]: 34.3 µM
- TGI [3]: 31.2 µM
- TGI [4]: 27.1 µM
- TGI [5]: 30.3 µM
- TGI [6]: 22.9 µM
- TGI [7]: 29.1 µM
- TGI [8]: 28.2 µM
- TGI [10]: 37.7 µM

SMILES: CC(=O)O[C@@H]1CC[C@@]2(C)C(=O)C34C[C@@]5(C)C([C@@H](C)CCCC(C)C)CCC5(C)[C@](O)(O3)C(=O)[C@H]4C2C1(C)C (some centres not stated)
- TGI [1]: 27.4 µM
- TGI [2]: 37 µM
- TGI [3]: 25.8 µM
- TGI [5]: 30.7 µM
- TGI [6]: 31.6 µM
- TGI [7]: 27 µM
- TGI [9]: 34.9 µM

SMILES: C=C1CN2CCc3c([nH]c4ccccc34)C2CC1CC(=O)N(C)C (configuration not stated)
- TGI [1]: > 309 µM
- TGI [2]: > 309 µM
- TGI [5]: > 309 µM
- TGI [6]: > 309 µM
- TGI [7]: > 309 µM
- TGI [9]: > 309 µM

SMILES: Nc1ncnc2c1ccn2-c1cccc(NC(=O)c2ccc(N3CCOCC3)c(C(F)(F)F)c2)c1
- GI50 [1]: 2950 nM
- TGI [1]: 13.6 µM
- GI50 [2]: 1830 nM
- TGI [2]: 5.1 µM
- GI50 [3]: 3.33 µM
- TGI [3]: 10.6 µM
- GI50 [4]: 2510 nM
- TGI [4]: 10.4 µM
- GI50 [5]: 3.96 µM
- TGI [5]: 13 µM
- GI50 [6]: 3.83 µM
- TGI [6]: 33.2 µM
- GI50 [7]: 2710 nM
- TGI [7]: 10.3 µM
- GI50 [8]: 2640 nM
- TGI [8]: 13.2 µM
- GI50 [9]: 3.44 µM
- TGI [9]: 13.1 µM

SMILES: CCOC(=O)CC1Nc2ccccc2C12CCc1c([nH]c3ccccc13)C2C(=O)OCC (configuration not stated)
- TGI [1]: > 100 µM
- TGI [2]: > 100 µM
- TGI [3]: > 100 µM
- TGI [4]: > 100 µM
- TGI [5]: > 100 µM
- TGI [6]: 61.7 µM
- TGI [7]: > 100 µM
- TGI [8]: > 100 µM
- TGI [9]: > 100 µM
- TGI [10]: > 100 µM

SMILES: O=C(Nc1ccc(F)cc1)c1cc2c(cc1Cl)Sc1nccn1S2(=O)=O
- TGI [2]: > 100 µM
- TGI [3]: > 100 µM
- TGI [4]: > 100 µM
- TGI [5]: > 100 µM
- TGI [6]: > 100 µM
- TGI [7]: > 100 µM
- TGI [8]: > 100 µM
- TGI [9]: > 100 µM
- TGI [10]: > 100 µM

SMILES: Cc1cccc(-c2nc(-c3cnccn3)n(Cc3ccccc3)n2)c1
- TGI [1]: > 100 µM
- TGI [3]: > 100 µM
- TGI [4]: > 100 µM
- TGI [5]: > 100 µM
- TGI [6]: > 100 µM
- TGI [7]: > 100 µM
- TGI [8]: > 100 µM
- TGI [9]: > 100 µM
- TGI [10]: > 100 µM

SMILES: C[C@]12CCc3nn(-c4ccccc4)nc3C1CC[C@@H]1C2CC[C@]2(C)C(=O)CCC12 (some centres not stated)
- TGI [1]: > 100 µM
- TGI [2]: > 100 µM
- TGI [3]: > 100 µM
- TGI [5]: > 100 µM
- TGI [6]: > 100 µM
- TGI [7]: > 100 µM
- TGI [9]: > 100 µM

SMILES: CC(N)C(C)c1ccccc1 (configuration not stated)
- TGI [1]: > 100 µM
- TGI [2]: > 100 µM
- TGI [3]: > 100 µM
- TGI [5]: > 100 µM
- TGI [6]: > 100 µM
- TGI [7]: > 100 µM
- TGI [9]: > 100 µM

SMILES: Nc1ccc(C2SCC(=O)N2NS(=O)(=O)c2cccc(C(=O)O)c2)cc1 (configuration not stated)
- TGI [1]: > 100 µM
- TGI [2]: > 100 µM
- TGI [3]: > 100 µM
- TGI [4]: > 100 µM
- TGI [5]: > 100 µM
- TGI [6]: > 100 µM
- TGI [7]: > 100 µM
- TGI [8]: > 100 µM
- TGI [9]: > 100 µM
- TGI [10]: > 100 µM

SMILES: NS(=O)(=O)c1ccc(NC(=O)c2ccc3nc4ccccc4c(Nc4ccc(S(N)(=O)=O)cc4)c3c2)cc1
- TGI [1]: > 100 µM
- TGI [2]: > 100 µM
- TGI [3]: > 100 µM
- TGI [4]: > 100 µM
- TGI [5]: > 100 µM
- TGI [6]: > 100 µM
- TGI [7]: > 100 µM
- TGI [8]: > 100 µM
- TGI [9]: > 100 µM
- TGI [10]: > 100 µM

SMILES: C#CCn1c(=O)ccn(/C(=C/C(=O)OCC)C(=O)OCC)c1=O
- TGI [1]: 25.1 µM
- TGI [2]: 30.2 µM
- TGI [3]: 11.8 µM
- TGI [4]: 28.1 µM
- TGI [5]: 40.7 µM
- TGI [6]: 13.8 µM
- TGI [7]: 18.7 µM
- TGI [8]: 28.1 µM
- TGI [9]: 26.9 µM
- TGI [10]: 41.1 µM

SMILES: CC(C)C(CCOS(=O)(=O)O)CCC(C)[C@H]1[C@@H](O)C(O)C2[C@]3(O)C[C@@H](O)C4(O)C[C@@H](O)CC[C@]4(C)C3CC[C@@]21C (some centres not stated)
- TGI [1]: > 100 µM
- TGI [2]: > 100 µM
- TGI [3]: > 100 µM
- TGI [5]: > 100 µM
- TGI [6]: > 100 µM
- TGI [7]: > 100 µM
- TGI [9]: > 100 µM

SMILES: N=c1oc2cc(O)ccc2cc1C(=O)Nc1cccc2ccccc12
- TGI [1]: 12.9 µM
- TGI [3]: 60 µM
- TGI [4]: 10.2 µM
- TGI [5]: 35.4 µM
- TGI [6]: 14.4 µM
- TGI [7]: 14.7 µM
- TGI [8]: 6.54 µM
- TGI [9]: 57.2 µM

SMILES: COC(=O)C1Cc2cc3c(cc2C1)CCC3
- TGI [1]: > 100 µM
- TGI [2]: > 100 µM
- TGI [3]: > 100 µM
- TGI [4]: > 100 µM
- TGI [5]: > 100 µM
- TGI [6]: > 100 µM
- TGI [7]: > 100 µM
- TGI [8]: > 100 µM
- TGI [9]: > 100 µM
- TGI [10]: > 100 µM

SMILES: C=CCOCn1cnc2c(=O)[nH]c(N)nc21
- TGI [1]: > 100 µM
- TGI [2]: > 100 µM
- TGI [3]: > 100 µM
- TGI [4]: > 100 µM
- TGI [5]: > 100 µM
- TGI [6]: > 100 µM
- TGI [7]: > 100 µM
- TGI [8]: > 100 µM
- TGI [9]: > 100 µM
- TGI [10]: > 100 µM

SMILES: COc1ccc2nc3cc(Cl)ccc3c(NCCCCCC(=O)NC(COc3ccc4ccc5cccnc5c4n3)COc3ccc4ccc5cccnc5c4n3)c2c1
- TGI [1]: 48.6 µM
- TGI [2]: 45.1 µM
- TGI [3]: 57.7 µM
- TGI [4]: 28.4 µM
- TGI [5]: > 100 µM
- TGI [6]: 37.4 µM
- TGI [7]: 23.5 µM
- TGI [8]: > 100 µM
- TGI [9]: 34.9 µM
- TGI [10]: 45.7 µM
